Here are results for 21 compounds from patent publication US20090270350A1, “Pyridinone Pyrazole Urea and Pyrimidinone Pyrazole Urea Derivatives” (PFIZER INC., priority 2006, published 2009).

This assay has as its target p38α (Homo sapiens, UniProt Q16539). As to the kind of experiment: p38α/MK2 cascade assay. Type of assay: biochemical. The conditions noted are these: read-out: p38a/MK2 Cascade 40 min Pre-Incuabtion (% Inhibition): IC50. The essentials: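 In a cascade format, p38α was preincubated 40 min with inhibitor (1000–0.05 nM) before adding 1 nM nonactive MK2 (54-400), 5 μM MgATP and 0.5 μM FITC-Hsp27 peptide. Reaction ran 60 min in HEPES pH 7.5 with MgCl2, DTT, 2% DMSO, then EDTA-quenched. Peptide phosphorylation was measured by Caliper mobility shift to give IC50.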

Where [1] appears, read: Table 1, inhibitors preincubated with p38α for 40 minutes, phosphorylation of Hsp27 peptide by MK-2, Caliper LabChip 3000.
Setting [2] is: Table 2, same p38α/MK2 cascade assay, 40 minutes preincubation.

Read-outs that look alike come from different tables or passages of the source.

p38α, sequence (Q16539 whole entry): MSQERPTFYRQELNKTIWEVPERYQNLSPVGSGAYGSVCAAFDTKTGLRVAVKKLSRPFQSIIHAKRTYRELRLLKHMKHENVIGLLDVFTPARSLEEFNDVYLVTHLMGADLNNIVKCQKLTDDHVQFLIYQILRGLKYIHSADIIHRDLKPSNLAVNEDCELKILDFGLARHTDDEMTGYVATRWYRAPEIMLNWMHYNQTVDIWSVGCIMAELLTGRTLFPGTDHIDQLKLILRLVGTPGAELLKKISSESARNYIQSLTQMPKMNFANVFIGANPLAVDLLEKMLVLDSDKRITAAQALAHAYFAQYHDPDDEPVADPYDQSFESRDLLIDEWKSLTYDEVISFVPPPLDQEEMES

For the compound `COC(=O)c1ccc(C)c(-n2c(C)cc(OCc3ccc(F)cc3CNC(=O)Nc3cc(C(C)(C)C)nn3-c3cccc(Cl)c3)c(Cl)c2=O)c1` [Example 182, Methyl 3-{4-[(2-{[({[3-tert-butyl-1-(3-chlorophenyl)-1H-pyrazol-5-yl]amino}carbonyl)amino]methyl}-4-fluorobenzyl)oxy]-3-chloro-6-methyl-2-oxopyridin-1(2H)-yl}-4-methylbenzoate], under setting [1], the IC50 is 3.99 nM.
Turning to `Cc1ccc(C(=O)NCCN(C)C)cc1-n1c(C)cc(OCc2ccccc2CNC(=O)Nc2cc(C(C)(C)C)nn2-c2cccc(OCCO)c2)c(Cl)c1=O` [Example 240, 3-[4-{[2-({[({3-tert-butyl-1-[3-(2-hydroxyethoxy)phenyl]-1H-pyrazol-5-yl}amino)carbonyl]amino}methyl)benzyl]oxy}-3-chloro-6-methyl-2-oxopyridin-1(2H)-yl]-N-[2-(dimethylamino)-ethyl]-4-methylbenzamide], under setting [2], the IC50 was 2.1 nM.
Consider `COc1ccc(Cn2c(C)cc(OCc3ccccc3CNC(=O)Nc3cc(C(C)(C)C)nn3-c3cccc(O)c3)c(Cl)c2=O)cc1Cl` [Example 65, 1-[3-tert-butyl-1-(3-hydroxyphenyl)-1H-pyrazol-5-yl]-3-[2-({[3-chloro-1-(3-chloro-4-methoxybenzyl)-6-methyl-2-oxo-1,2-dihydropyridin-4-yl]oxy}methyl)benzyl]urea], for which, under setting [1], the IC50 stood at 6.9 nM.
The same measure, in the same setting: as for `COc1ccc(Cn2c(C)cc(OCc3ccccc3CNC(=O)Nc3cc(C(C)(C)C)nn3-c3ccc(O)cc3)c(Cl)c2=O)cc1Cl` [Example 64, 1-[3-tert-butyl-1-(4-hydroxyphenyl)-1H-pyrazol-5-yl]-3-[2-({[3-chloro-1-(3-chloro-4-methoxybenzyl)-6-methyl-2-oxo-1,2-dihydropyridin-4-yl]oxy}methyl)benzyl]urea], the figure is 7.5 nM.
With `COc1ccccc1Cn1c(C)cc(OCc2ccccc2CNC(=O)Nc2cc(C(C)(C)SC)nn2-c2cccc(O)c2)c(Cl)c1=O` [Example 276, 1-[2-({[3-chloro-1-(2-methoxybenzyl)-6-methyl-2-oxo-1,2-dihydropyridin-4-yl]oxy}methyl)benzyl]-3-{1-(3-hydroxyphenyl)-3-[1-methyl-1-(methylthio)ethyl]-1H-pyrazol-5-yl}ure], the IC50 under setting [2] was 20.5 nM.
The same measure, in the same setting: as for `CSc1ccccc1Cn1c(C)cc(OCc2ccccc2CNC(=O)Nc2cc(C(C)(C)C)nn2-c2ccc(O)cc2)c(C)c1=O` [Example 241, 1-[3-tert-butyl-1-(4-hydroxyphenyl)-1H-pyrazol-5-yl]-3-{2-[({3,6-dimethyl-1-[2-(methylthio)benzyl]-2-oxo-1,2-dihydro-pyridin-4-yl}oxy)methyl]benzyl}urea], the figure is 13.6 nM.
Turning to `Cc1ccc(-n2nc(C(C)(C)C)cc2NC(=O)NCc2ccccc2COc2cc(C)n(Cc3ccc(O)cc3)c(=O)c2Br)cc1` [Example 100, 1-[2-({[3-bromo-1-(4-hydroxybenzyl)-6-methyl-2-oxo-1,2-dihydropyridin-4-yl]oxy}methyl)benzyl]-3-[3-tert-butyl-1-(4-methylphenyl)-1H-pyrazol-5-yl]urea], under setting [1], the IC50 was 4.59 nM.
On the same count and under the same terms, as for `COc1ccc(Cn2c(C)cc(OCc3ccccc3CNC(=O)Nc3cc(C(C)(C)C)nn3-c3ccc(C)cc3)c(Br)c2=O)c(OC)c1` [Example 122, 1-[2-({[3-bromo-1-(2,4-dimethoxybenzyl)-6-methyl-2-oxo-1,2-dihydropyridin-4-yl]oxy}methyl)benzyl]-3-[3-tert-butyl-1-(4-methylphenyl)-1H-pyrazol-5-yl]urea], the figure is 15.4 nM; as for `COc1ccc(Cn2c(C)cc(OCc3ccccc3CNC(=O)Nc3cc(C4CC4)nn3-c3ccccc3)c(Br)c2=O)cc1` [Example 102, 1-[2-({[3-bromo-1-(4-methoxybenzyl)-6-methyl-2-oxo-1,2-dihydropyridin-4-yl]oxy}methyl)benzyl]-3-(3-cyclopropyl-1-phenyl-1H-pyrazol-5-yl)urea], 182 nM.
As for `COc1ccc(Cn2c(C)cc(OCc3ccccc3CNC(=O)Nc3cc(C(C)(C)C)nn3-c3ccc(Cl)c(O)c3)c(C)c2=O)cc1C#N` [Example 251, 1-[3-tert-butyl-1-(4-chloro-3-hydroxyphenyl)-1H-pyrazol-5-yl]-3-[2-({[1-(3-cyano-4-methoxybenzyl)-3,6-dimethyl-2-oxo-1,2-dihydropyridin-4-yl]oxy}methyl)benzyl]urea], under setting [2], the IC50 was 8.4 nM.
The same measure, in the same setting: the same measure for `COc1cccc(Cn2c(C)cc(OCc3ccc(F)cc3CNC(=O)Nc3cc(C(C)(C)C)nn3-c3cccc(OC)c3)c(Cl)c2=O)c1` [Example 201, 1-[3-tert-butyl-1-(3-methoxyphenyl)-1H-pyrazol-5-yl]-3-[2-({[3-chloro-1-(3-methoxybenzyl)-6-methyl-2-oxo-1,2-dihydropyridin-4-yl]oxy}methyl)-5-fluoro-benzyl]urea]: 4.5 nM; for `Cc1ccc(C(=O)NCCO)cc1-n1c(C)cc(OCc2ccc(F)cc2CNC(=O)Nc2cc(C(C)(C)C)nn2-c2cccc(OCCO)c2)c(Cl)c1=O` [Example 239, 3-[4-{[2-({[({3-tert-butyl-1-[3-(2-hydroxyethoxy)phenyl]-1H-pyrazol-5-yl}amino)carbonyl]amino}methyl)-4-fluorobenzyl]-oxy}-3-chloro-6-methyl-2-oxopyridin-1(2H)-yl]-N-(2-hydroxy-ethyl)-4-methylbenzamide]: 2.9 nM.
On the same count and under the same terms, as for `Cc1ccc(C(=O)N[C@@H](C)C(N)=O)cc1-n1c(C)cc(OCc2ccccc2CNC(=O)Nc2cc(C(C)(C)C)nn2-c2ccc(O)cc2)c(Cl)c1=O` [Example 220, N-[(1S)-2-amino-1-methyl-2-oxoethyl]-3-{4-[(2-{[({[3-tert-butyl-1-(4-hydroxyphenyl)-1H-pyrazol-5-yl]amino}carbonyl)-amino]methyl}benzyl)oxy]-3-chloro-6-methyl-2-oxopyridin-1(2H)-yl}-4-methylbenzamide], the figure is 1.4 nM.
As for `COC(=O)c1ccc(C)c(-n2c(C)cc(OCc3ccc(F)cc3CNC(=O)Nc3cc(C(C)(C)C)nn3-c3ccc(C)cc3)c(Cl)c2=O)c1` [Example 181, Methyl 3-{4-[(2-{[({[3-tert-butyl-1-(4-methylphenyl)-1H-pyrazol-5-yl]amino}carbonyl)amino]methyl}-4-fluorobenzyl)oxy]-3-chloro-6-methyl-2-oxopyridin-1(2H)-yl}-4-methylbenzoate], the IC50 under setting [1] came out at 3.31 nM.
`COC(=O)c1ccc(C)c(-n2c(C)cc(OCc3ccccc3CNC(=O)Nc3cc(C(C)(C)C)nn3-c3ccc(O)c(Cl)c3)c(Cl)c2=O)c1` [Example 222, methyl 3-{4-[(2-{[({[3-tert-butyl-1-(3-chloro-4-hydroxy-phenyl)-1H-pyrazol-5-yl]amino}carbonyl)amino]-methyl}-benzyl)oxy]-3-chloro-6-methyl-2-oxopyridin-1(2H)-yl}-4-methylbenzoate]: the IC50 under setting [2] came to 9.6 nM.
`COc1cc(Cn2c(C)cc(OCc3ccccc3CNC(=O)Nc3cc(C(C)(C)C)nn3-c3ccc(O)cc3)c(Cl)c2=O)ccc1Cl` [Example 258, 1-[3-tert-butyl-1-(4-hydroxyphenyl)-1H-pyrazol-5-yl]-3-[2-({[3-chloro-1-(4-chloro-3-methoxybenzyl)-6-methyl-2-oxo-1,2-dihydropyridin-4-yl]oxy}methyl)benzyl]urea]: the IC50 under setting [2] was 10.1 nM.
With `COc1ccc(Cn2c(C)cc(OCc3ccccc3CNC(=O)Nc3cc(C(C)(C)C)nn3-c3cccc(OC)c3)c(Br)c2=O)cc1` [Example 99, 1-[2-({[3-bromo-1-(4-methoxybenzyl)-6-methyl-2-oxo-1,2-dihydropyridin-4-yl]oxy}methyl)benzyl]-3-[3-tert-butyl-1-(3-methoxyphenyl)-1H-pyrazol-5-yl]urea], the IC50 under setting [1] was determined as 3.49 nM.
For the compound `Cc1cc(OCc2ccccc2CNC(=O)Nc2cc(C(C)(C)C)nn2-c2ccc(O)c(Cl)c2)c(Cl)c(=O)n1Cc1ccc(CNC(=O)CN)cc1` [Example 274, N-[4-({4-[(2-{[({[3-tert-butyl-1-(3-chloro-4-hydroxyphenyl)-1H-pyrazol-5-yl]amino}carbonyl)amino]methyl}benzyl)oxy]-3-chloro-6-methyl-2-oxopyridin-1(2H)-yl}methyl)benzyl]-glycinamide], under setting [2], the IC50 stood at 3.6 nM.
The same measure, in the same setting: the same measure for `COc1ccc(Cn2c(C)cc(OCc3ccccc3CNC(=O)Nc3cc(C(C)(C)C)nn3-c3cccc(O)c3)c(C)c2=O)cc1C#N` [Example 252, 1-[3-tert-butyl-1-(3-hydroxyphenyl)-1H-pyrazol-5-yl]-3-[2-({[1-(3-cyano-4-methoxybenzyl)-3,6-dimethyl-2-oxo-1,2-dihydro-pyridin-4-yl]oxy}methyl)benzyl]urea]: 6 nM.
Still for that read-out and setting: as for `Cc1ccc(C(=O)NCCO)cc1-n1c(C)cc(OCc2ccccc2CNC(=O)Nc2cc(C(C)(C)C)nn2-c2ccc(O)cc2)c(Cl)c1=O` [Example 216, 3-{4-[(2-{[({[3-tert-butyl-1-(4-hydroxyphenyl)-1H-pyrazol-5-yl]amino}carbonyl)amino]methyl}benzyl)oxy]-3-chloro-6-methyl-2-oxopyridin-1(2H)-yl}-N-(2-hydroxyethyl)-4-methyl-benzamide], the figure is 1.8 nM; as for `COCCNC(=O)c1ccc(C)c(-n2c(C)cc(OCc3ccc(F)cc3CNC(=O)Nc3cc(C(C)(C)C)nn3-c3ccc(Cl)c(O)c3)c(Cl)c2=O)c1` [Example 235, 3-{4-[(2-{[({[3-tert-butyl-1-(4-chloro-3-hydroxyphenyl)-1H-pyrazol-5-yl]amino}carbonyl)amino]methyl}-4-fluorobenzyl)-oxy]-3-chloro-6-methyl-2-oxopyridin-1(2H)-yl}-N-(2-methoxy-ethyl)-4-methylbenzamide], 4.2 nM.
